Patent publication US7834248B2, “Plant seed comprising vernolic acid” (Commonwealth Scientific and Industrial Research Organisation, priority 1997, dated 2010)

How the values were obtained:
[1] = test system: C. palaestina linoleate Δ12-epoxygenase; assay: Microsomal linoleate Δ12-epoxygenase assay, effect of treatments; format: biochemical, Crepis palaestina; conditions: microsomal membranes; control = minus NADPH plus NADH
Description: (§1) Preparations of membranes from Crepis alpina and Crepis palaestina were obtained as follows. Crepis alpina and Crepis palaestina plants were grown in green houses and seeds were harvested at the mid-stage of development (17-20 days after flowering). Cotyledons were squeezed out from their seed coats and homogenized with mortar and pestle in 0.1M phosphate buffer, pH 7.2 containing 0.33M sucrose, 4 mM NADH, 2 mM CoASH, 1 mg of bovine serum albumin/ml and 4,000 units of catalase/ml. The homogenate was centrifuged for 10 min at 18,000×g and the resulting supernatant centrifuged for 60 min at 150,000×g to obtain a microsome pellet.
(§2) […]. When NADPH was used as coreductant, the membranes were resuspended in homogenization buffer comprising NADPH in place of NADH.
(§3) Biochemical characterization of the microsomal linoleate Δ12-epoxygenase derived from Euphorbia lagascae and Crepis palaestina was carried out and data obtained were compared to the biochemical characteristics of oleate Δ12-desaturase and linoleate Δ12-acetylenase enzymes derived from microsomal preparations of Crepis alpina (Table 4).

[2] = test system: E. lagascae linoleate Δ12-epoxygenase; assay: Membrane linoleate Δ12-epoxygenase assay, effect of treatments; format: biochemical, Euphorbia lagascae; conditions: for Enzyme Activity (% of control), E. lagascae linoleate Δ12-epoxygenase: membranes, control = minus NADH plus NADPH
Description: Preparations of membranes from Euphorbia lagascae and assays of their epoxygenase activities were performed as described by Bafor et al. (1993) with incubations containing NADPH, unless otherwise indicated in Table 4. Lipid extraction, separation and methylation as well as GLC and radio-GLC separations were performed essentially as described by Kohn et al. (1994) and Bafor et al. (1993).
as §3

[3] = target: T1, C. alpina linoleate Δ12-acetylenase (Crepis alpina, UniProt O81931); assay: Microsomal linoleate Δ12-acetylenase assay, effect of treatments; format: biochemical
T1 construct: from tissue; host or cells: microsomes from cotyledons of developing Crepis alpina seeds
Description: as §1, §2, §3

[4] = test system: C. alpina oleate Δ12-desaturase; assay: Microsomal oleate Δ12-desaturase assay, effect of treatments; format: biochemical, Crepis alpina; conditions: for Enzyme Activity (% of control), C. alpina oleate Δ12-desaturase: microsomal membranes, control = minus NADPH plus NADH
Description: as §1, §2, §3

[5] = test system: developing linseed cotyledons; assay: Incorporation of 14C-labelled oleic acid and vernolic acid into the lipids of developing linseed cotyledons
Description: 0.1 M phosphate buffer pH 7.2 for 90 or 270 min before extraction. An aliquot of the lipids in the chloroform phase was methylated and separated on silica gel TLC plates in n-hexane/diethylether/acetic acid (85:15:1). The rest of the lipids in the chloroform phase of each sample were applied on two separate silica gel TLC plates and the plates were developed in chloroform/methanol/acetic acid/water (85:15:10:3.5 by vol) for polar lipids separation and in n-hexane/diethylether/acetic acid (60:40:1.5) for neutral lipid separation. Lipid areas with migration corresponding to authentic standards were removed and radioactivity in each lipid were quantified by liquid scintillation counting.

T1 sequence (O81931 whole entry, stated change not applied): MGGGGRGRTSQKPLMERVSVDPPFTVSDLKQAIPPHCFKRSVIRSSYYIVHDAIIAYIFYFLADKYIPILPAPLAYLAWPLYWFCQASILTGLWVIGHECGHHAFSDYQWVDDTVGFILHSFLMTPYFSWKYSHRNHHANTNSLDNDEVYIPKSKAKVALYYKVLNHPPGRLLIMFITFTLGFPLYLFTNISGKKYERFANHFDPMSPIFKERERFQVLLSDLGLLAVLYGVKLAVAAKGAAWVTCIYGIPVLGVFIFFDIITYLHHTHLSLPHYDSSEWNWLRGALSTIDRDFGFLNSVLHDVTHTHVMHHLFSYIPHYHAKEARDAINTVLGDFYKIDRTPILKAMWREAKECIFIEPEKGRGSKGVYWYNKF

## [C-]#[O+] [Carbon monoxide]
[1]
  Enzyme Activity (% of control), C. palaestina linoleate Δ12-epoxygenase: 88 % of control
[2]; Euphorbia lagascae membranes
  Inhibition of linoleate Δ12-epoxygenase (in words): is inhibited
[2]
  Enzyme Activity (% of control), E. lagascae linoleate Δ12-epoxygenase: 3 % of control
[3]; Crepis alpina microsomes
  Inhibition of linoleate Δ12-acetylenase (in words): not by carbon monoxide
[4]; Crepis alpina microsomes
  Inhibition of oleate Δ12-desaturase (in words): not by carbon monoxide
[4]
  Enzyme Activity (% of control), C. alpina oleate Δ12-desaturase: 85 % of control

## NC(=O)C1=CN([C@@H]2O[C@H](COP(=O)(O)OP(=O)(O)OC[C@H]3O[C@@H](n4cnc5c(N)ncnc54)[C@H](O)[C@@H]3O)[C@@H](O)[C@H]2O)C=CC1 [NADH]
[2]
  Enzyme Activity (% of control), E. lagascae linoleate Δ12-epoxygenase: 11 % of control

## NC(=O)C1=CN([C@@H]2O[C@H](COP(=O)(O)OP(=O)(O)OC[C@H]3O[C@@H](n4cnc5c(N)ncnc54)[C@H](OP(=O)(O)O)[C@@H]3O)[C@@H](O)[C@H]2O)C=CC1 [NADPH]
[1]
  Enzyme Activity (% of control), C. palaestina linoleate Δ12-epoxygenase: 94 % of control
[3]; microsomal membranes, control = minus NADPH plus NADH
  Enzyme Activity (% of control), C. alpina linoleate Δ12-acetylenase: 73 % of control
[4]
  Enzyme Activity (% of control), C. alpina oleate Δ12-desaturase: 95 % of control

## CCCCCCCC/C=C\CCCCCCCC(=O)O [[^14C]oleic acid, oleic acid]
[5]; after 30 min
  Activity of chloroform phase residing in phosphatidylcholine: About 22%
  Activity of chloroform phase residing in triacylglycerols: About 5%
[5]; after the 30 min pulse labeling, virtually unchanged during further 270 min
  Added radioactivity taken up by the cotyledons and recovered as lipophilic substances (chloroform phase): Somewhat more than half
[5]; at 300 min of incubation
  Activity of chloroform phase residing in phosphatidylcholine: about 11%
  Activity of chloroform phase residing in triacylglycerols: 18%
[5]; remained rather constant over the incubation periods
  Activity contained in diacylglycerols: ~19%

## CCCCCC1OC1CC=CCCCCCCCC(=O)O (centres unmarked) [[^14C]vernolic acid, 12,13-epoxy-9-octadecenoic acid]
[5]
  Metabolism of the epoxy group by linseed cotyledons (in words): do not metabolize the epoxy group of vernolic acid to any great extent
